Test systems include SNB-75; SF-295; NCI-H226; MDA-MB-231; UO-31; SK-MEL-5; EKVX; HT-29; SF-539; U-251; SK-MEL-2; NCI-H23; RPMI-8226; KM12; SNB-19; HOP-92; SK-MEL-28; Hs-578T; HL-60.
What all share (experiment): NCI tumour cell line growth inhibition, 48 h

The values that follow come from ChEMBL document CHEMBL1201862, “PubChem BioAssay data set” (2004).

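Cells were grown in 96-well plates and exposed to each compound for 48 hours at five concentrations; endpoints were interpolated linearly between bracketing concentrations, or set to the highest concentration if not reached. Here, GI50 denotes the concentration required for 50% inhibition of growth.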 Calls of active or inactive are those of the source. No stated cut-off is given here; in the data, active = GI50 up to about 1.1 µM and inactive = higher.

Take `CCCCNC(=S)Nc1nc(C(=O)NNC(=S)NCC)cs1`: the GI50 was > 100 µM (inactive) in the assay on SNB-75; > 100 µM (inactive) with SF-295; > 10 µM (inactive) with NCI-H226; 99.8 µM (inactive) with MDA-MB-231; 31.6 µM (inactive) in the assay with UO-31; 25.7 µM (inactive) with SK-MEL-5. For the same molecule, the GI50 was 16.5 µM (inactive) in the assay on EKVX; 53.8 µM (inactive) with HT-29; 73.5 µM (inactive) in the assay on SF-539; > 100 µM (inactive) in the assay on U-251; > 100 µM (inactive) with SK-MEL-2; > 100 µM (inactive) in the assay with NCI-H23. For the same molecule, the GI50 is > 100 µM (inactive) in the assay with RPMI-8226 and 76.9 µM (inactive) in the assay on KM12.
Turning to `COc1ccc(-n2cnc3c(NC(Cc4ccccc4)C(=O)O)ncnc32)cc1` (configuration not stated), the GI50 in the assay on SNB-75, in the assay on SF-295, in the assay on NCI-H226, in the assay with MDA-MB-231, with UO-31 and in the assay with SK-MEL-5 was > 100 µM (inactive) each time. The GI50 in the assay on EKVX was > 100 µM (inactive); in the assay on HT-29, > 100 µM (inactive); in the assay with U-251, > 100 µM (inactive); in the assay on SK-MEL-2 it was > 100 µM (inactive); with SNB-19, > 10 µM (inactive); in the assay on HOP-92, > 100 µM (inactive). Further, the GI50 with NCI-H23, in the assay on SK-MEL-28, in the assay with RPMI-8226, in the assay with KM12 and in the assay with Hs-578T was > 100 µM (inactive) throughout.
Consider `COc1cc(Nc2nc3cc(C(F)(F)F)ccc3nc2C)cc(OC)c1OC`, for which the GI50 with SNB-75 was 15.5 µM (inactive); with SF-295 it was 1.97 µM (inactive); in the assay with NCI-H226, 5.14 µM (inactive); with UO-31 it was 4.22 µM (inactive); in the assay on SK-MEL-5 it was 9.79 µM (inactive); in the assay on EKVX it was 16.6 µM (inactive). Further, the GI50 in the assay on HT-29 is 3 µM (inactive); in the assay on SF-539, 12.2 µM (inactive); with U-251, 9.95 µM (inactive); in the assay with SK-MEL-2 it was 11 µM (inactive); with HOP-92 it was 0.246 µM (active); with NCI-H23 it was 10.7 µM (inactive). In addition, the values for the GI50 in the assay with SK-MEL-28 and in the assay on KM12 were 12.5 µM (inactive) and 6.32 µM (inactive), respectively.
As for `C=C(C)COC(=O)COCC(=O)OCC(=C)C`, the GI50 in the assay with SNB-75, in the assay on SF-295, in the assay with NCI-H226, with MDA-MB-231, with UO-31 and in the assay with SK-MEL-5 was > 100 µM (inactive) throughout. The GI50 in the assay with EKVX, in the assay on HT-29, in the assay with U-251, in the assay with SNB-19, in the assay with HOP-92 and in the assay on NCI-H23 was > 100 µM (inactive) in each case. Moreover, the GI50 in the assay on SK-MEL-28, in the assay on RPMI-8226, with KM12 and with Hs-578T was > 100 µM (inactive) in each case.
Consider `COC1(C(C)(C)C)C=C(C(C)(C)C)P(=O)(O)O1` (configuration not stated), for which the GI50 in the assay on SNB-75, with SF-295, in the assay with SK-MEL-5, with EKVX, in the assay on HT-29 and with SF-539 was > 100 µM (inactive) throughout. Further, the GI50 in the assay on U-251, with SK-MEL-2, with HL-60, in the assay on SNB-19, in the assay on HOP-92 and in the assay on NCI-H23 was > 100 µM (inactive) throughout. Moreover, the GI50 in the assay on SK-MEL-28, with RPMI-8226, in the assay with KM12 and in the assay with Hs-578T was > 100 µM (inactive) each time.
For `Cc1ccc(S(=O)(=O)N2CC2CCCCC=O)cc1` (configuration not stated), the GI50 with SNB-75 is > 100 µM (inactive); with SF-295 it was > 100 µM (inactive); in the assay on NCI-H226 it was > 100 µM (inactive); in the assay on MDA-MB-231, > 100 µM (inactive); with UO-31 it was 85.5 µM (inactive); in the assay on SK-MEL-5 it was 54.2 µM (inactive). The GI50 in the assay with EKVX is > 100 µM (inactive); in the assay with HT-29 it was 26.8 µM (inactive); in the assay on U-251, 27.4 µM (inactive); in the assay on SK-MEL-2 it was > 100 µM (inactive); with SNB-19, > 100 µM (inactive); with HOP-92, > 100 µM (inactive). For the same molecule, the GI50 with NCI-H23 is > 100 µM (inactive); in the assay with SK-MEL-28, > 100 µM (inactive); in the assay on RPMI-8226, 37.8 µM (inactive); in the assay with KM12 it was 63.1 µM (inactive); in the assay with Hs-578T, 44.3 µM (inactive).
With `N#CC1(C#N)C2CCCCC23OC(=N)C1(C#N)C(c1ccccc1)O3` (configuration not stated), the GI50 in the assay on SNB-75 is 0.213 µM (active); in the assay on SF-295, 69 µM (inactive); with NCI-H226 it was > 100 µM (inactive); in the assay with MDA-MB-231, 16.4 µM (inactive); in the assay with UO-31 it was 34.8 µM (inactive); in the assay with SK-MEL-5, 16.1 µM (inactive). Besides, the GI50 in the assay on EKVX is 23.5 µM (inactive); in the assay on HT-29 it was 18.2 µM (inactive); in the assay with SF-539, 17.1 µM (inactive); in the assay on U-251 it was 17.6 µM (inactive); in the assay on SK-MEL-2, 20.2 µM (inactive); with SNB-19, 45.9 µM (inactive). The GI50 with HOP-92 was 15.5 µM (inactive); with NCI-H23, 30.5 µM (inactive); with SK-MEL-28, > 10 µM (inactive); in the assay on KM12, 8.49 µM (inactive); in the assay with Hs-578T it was 0.302 µM (active).
As to `CCOC(=O)C1C(=O)CC(O)(OCC)C(C(=O)OCC)C1c1ccc(OC)cc1` (configuration not stated), the GI50 with SNB-75, in the assay with SF-295, in the assay with NCI-H226, in the assay with MDA-MB-231, in the assay with UO-31 and in the assay with SK-MEL-5 was > 100 µM (inactive) throughout. The GI50 in the assay on EKVX, in the assay on HT-29, with U-251, in the assay on SK-MEL-2, in the assay on HL-60 and with SNB-19 was > 100 µM (inactive) in each case. Moreover, the GI50 with HOP-92, in the assay with NCI-H23, in the assay with SK-MEL-28 and with KM12 was > 100 µM (inactive) each time.
As for `O=[N+]([O-])c1ccc(O)c(/C=N/CC2CCCN3CCCCC23)c1` (configuration not stated), the GI50 in the assay on SNB-75 was 23.7 µM (inactive); with SF-295 it was 31.2 µM (inactive); in the assay on NCI-H226, 26.5 µM (inactive); in the assay with MDA-MB-231, 88.1 µM (inactive); with UO-31, 34.8 µM (inactive); with SK-MEL-5, 19.3 µM (inactive). In addition, the GI50 was 31.4 µM (inactive) in the assay on EKVX; 35.6 µM (inactive) with HT-29; 25.6 µM (inactive) in the assay on SF-539; 25.1 µM (inactive) in the assay with SNB-19; 46.7 µM (inactive) in the assay on NCI-H23; 37.7 µM (inactive) in the assay with KM12. Further, the GI50 with Hs-578T is 16.9 µM (inactive).
Regarding `C[C@@H](NC(C#N)c1ccco1)c1ccccc1` (some centres not stated), the GI50 in the assay with SNB-75, with SF-295, with NCI-H226, with UO-31, in the assay on SK-MEL-5 and in the assay on EKVX was > 100 µM (inactive) each time. In addition, the GI50 in the assay on HT-29 was > 100 µM (inactive); in the assay on SF-539 it was > 100 µM (inactive); in the assay on U-251, > 100 µM (inactive); with HL-60, > 100 µM (inactive); with SNB-19 it was > 100 µM (inactive); in the assay with HOP-92 it was 30.4 µM (inactive). Further, the GI50 in the assay on NCI-H23, in the assay with SK-MEL-28, with RPMI-8226, with KM12 and with Hs-578T was > 100 µM (inactive) each time.
Regarding `COc1cc([N+](=O)[O-])c(S(=O)(=O)O)cc1-n1nc(C(=O)Nc2ccccc2)n[n+]1-c1cc(S(=O)(=O)[O-])c([N+](=O)[O-])cc1OC`, the GI50 in the assay with SNB-75, in the assay on SF-295, in the assay on NCI-H226, with UO-31, in the assay with SK-MEL-5 and with EKVX was > 100 µM (inactive) in each case. Also, the GI50 in the assay with HT-29 is 56 µM (inactive); with U-251 it was 97.7 µM (inactive); in the assay with SK-MEL-2, > 100 µM (inactive); in the assay on HL-60 it was > 100 µM (inactive); in the assay on SNB-19, > 100 µM (inactive); in the assay with HOP-92 it was > 100 µM (inactive). Besides, the GI50 in the assay with NCI-H23, in the assay with SK-MEL-28, in the assay with RPMI-8226, in the assay on KM12 and with Hs-578T was > 100 µM (inactive) in each case.
Take `COC[C@H]1OC(=O)c2coc3c2[C@@]1(C)C1=C(C3=O)[C@@H]2CCC(=O)[C@@]2(C)C[C@H]1OC(C)=O` [WORTMANNIN]: the GI50 in the assay with SNB-75 is 0.323 µM (active); in the assay on SF-295 it was 2.96 µM (inactive); with UO-31 it was 0.665 µM (active); in the assay with SK-MEL-5, 11.5 µM (inactive); in the assay with EKVX, 9.66 µM (inactive); with HT-29, 1.97 µM (inactive). Moreover, the GI50 with SF-539 was 2.82 µM (inactive); in the assay on SK-MEL-2, 2.21 µM (inactive); in the assay with SNB-19, 6.38 µM (inactive); in the assay on NCI-H23, 35.7 µM (inactive); in the assay with SK-MEL-28, 7.45 µM (inactive); with RPMI-8226 it was 2.43 µM (inactive). For the same molecule, the GI50 with KM12 is 11.5 µM (inactive).
